Experimental data taken from publication PMC9295122, “Sialic Acid Derivatives Inhibit SiaT Transporters and Delay Bacterial Growth” (ACS Chemical Biology, 2022).
Where two headings read alike, the source gives them in different places.

B1: SiaT from S. aureus (Staphylococcus aureus subsp. aureus USA300) (protein)
chain: MKEVGFGTLNWVAVIIYLLAMLFIGVYFTKRASQSTNSFFTASGRLPSWVVGFSIYATTLSAITFMSTPEKAFLTDWSYIAGNIAIVAIIPLLIYFYVPFFKKLKVTSAYEYLEARFGPSIRVIGSLLFVVYHLGRVAIVIYLPTLAITSVSDMNPYIVASLVGLLCILYTFLGGFEGVVWSDFIQGVILLGGALVIIILGVVNIKGGFGTVFADAIEHKKLISADNWKLNTAAAAIPIIFLGNIFNNLYQYTASQDVVQRYQASDSLKETNKSLWTNGILALISAPLFYGMGTMLYSFYTHEAVLPKGFNTSSVVPYFILTEMPPFVAGLLIAAIFAAAQSTISSSLNSISACISIDIKQRFFGKGSERHEVNFARFIIIIAGIFGFGMSLYLIASNSNDLWDLFLFVTGLFGVPLAGVFAVGIFTKRTNTFGVICGLILGIIFAYVYNGVGKGNSPFYVSTISFTVAFVFAYILSFIVPSKHKKDITGLTIFEKDKPSTYISKTATKK

Tests used:
PmSiaT = biological target: T1, PmSiaT (Proteus mirabilis, UniProt B4EZY7); experiment: nanoDSF thermal shift assay, PmSiaT; type: binding; settings: for Average 1 / Average 2 / Average 3 / Replicate 1 / Replicate 2 / Replicate 3: PmSiaT Tm; for Average 1: average of experiment 1; for Average 2: average of experiment 2; for Average 3: average of experiment 3; for Replicate 1: experiment 1, second capillary; for Replicate 1 / Replicate 2 / Replicate 3 / Tm 1 / Tm2 / Tm 3 / Tm average overall / ΔTm at 1250 µM: 1.25 mM; for Replicate 2: experiment 2, second capillary; for Replicate 3: experiment 3, second capillary; for Tm 1 / ΔTm / Tm2 / Tm 3 / Tm average overall / ΔTm at 1250 µM: PmSiaT; for Tm 1: experiment 1, first capillary; for Tm2: experiment 2, first capillary; for Tm 3: experiment 3, first capillary; for Tm average overall / ΔTm at 1250 µM: three experiments; for ΔTm at 1250 µM: vs Neu5Ac, read-out: ΔTm average overall
T1 construct: made in house
T1 sequence (B4EZY7 1-496): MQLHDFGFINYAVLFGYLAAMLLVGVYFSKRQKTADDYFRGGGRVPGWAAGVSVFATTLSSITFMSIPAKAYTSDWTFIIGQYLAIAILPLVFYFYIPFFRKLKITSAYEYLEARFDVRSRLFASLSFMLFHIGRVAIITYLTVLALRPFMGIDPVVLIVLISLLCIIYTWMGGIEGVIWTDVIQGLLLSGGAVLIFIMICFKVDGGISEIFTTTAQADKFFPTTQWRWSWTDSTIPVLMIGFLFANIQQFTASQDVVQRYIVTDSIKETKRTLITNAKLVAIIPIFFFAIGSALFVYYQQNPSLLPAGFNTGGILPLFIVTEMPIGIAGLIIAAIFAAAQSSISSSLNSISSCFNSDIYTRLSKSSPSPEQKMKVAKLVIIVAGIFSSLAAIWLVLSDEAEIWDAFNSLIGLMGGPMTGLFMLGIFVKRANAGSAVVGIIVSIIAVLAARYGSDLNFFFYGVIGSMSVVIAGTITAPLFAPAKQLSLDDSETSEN
Experimental: (§1) Nano-differential scanning fluorimetry (nanoDSF) is a high-throughput method that relies on the thermal stabilization of the folded protein state by a bound ligand.[33]
(§2) The melting points of protein–inhibitor complexes were measured on a Prometheus NT.48 instrument from NanoTemper Technologies. Solutions containing the protein at 2 μM in phosphate buffered saline with 0.0174% (w/v) dodecylmaltoside (DDM) and the ligand at 1.25 mM were loaded onto standard capillaries by NanoTemper. The temperature was increased from 25 to 95 °C at a ramp rate of 1 °C/min. The fluorescence was recorded at 330 and 350 nm and as a ratio of the two wavelengths.
(§3) The intensity ratio and its first derivative were calculated using manufacturer’s software (PR.ThermControl, version 2.1.2).
(§4) The melting temperatures have been measured in 3 separate experiments. In each experiment, two capillaries were included per compound, having therefore 2 technical replicates per experiment. In the table all data is presented. Tm1 and Replicate 1 represent the two replicates of the first experiment. Average 1 is the average between Tm 1 and Replicate 1. ΔTm 1 is the thermal shift when compared to the Tm of Neu5Ac. This is calculated from Average 1. The ΔTm presented in the article are the ΔTm average overall, which represent the overall average of the averages from the three experiments. The standard deviation (SD) is calculated from the […]

SaSiaT = SaSiaT (Staphylococcus aureus, UniProt A0A0H2XJ46); experiment: nanoDSF thermal shift assay, SaSiaT; type: binding; settings: for Average 1 / Average 2 / Average 3 / Replicate 1 / Replicate 2 / Replicate 3: SaSiaT Tm; for Average 1: average of experiment 1; for Average 2: average of experiment 2; for Average 3: average of experiment 3; for Replicate 1: experiment 1, second capillary; for Replicate 1 / Replicate 2 / Replicate 3 / Tm 1 / Tm2 / Tm 3 / Overall average (Tm): 1.25 mM; for Replicate 2: experiment 2, second capillary; for Replicate 3: experiment 3, second capillary; for Tm 1 / Tm2 / Tm 3 / Overall average (Tm): SaSiaT; for Tm 1: experiment 1, first capillary; for Tm2: experiment 2, first capillary; for Tm 3: experiment 3, first capillary; for Overall average (Tm): three experiments
Experimental: as §1, §2, §3, §4

[1] = substrate: CC(=O)N[C@H]1[C@H]([C@H](O)[C@H](O)CO)OC(O)(C(=O)O)C[C@@H]1O; experiment: cells, lysate or membranes named; settings: other: Neu5Ac transport by SaSiaT in proteoliposomes; pH 7.0; 25.0 °C
Experimental: A kinetic analysis was performed by measuring the concentration-dependent uptake of [^3H]Neu5Ac in the presence of two different concentrations of the inhibitors 3f (Figure 5a,c) or 3e (Figure 5b,d).
(a–d) Data were plotted according to Lineweaver–Burk as a reciprocal transport rate vs reciprocal Neu5Ac concentration. The transport rate was measured, in 5 min, by adding [^3H] Neu5Ac at the indicated concentrations to proteoliposomes containing 20 mM K^+-gluconate in the presence of valinomycin as described in the Supporting Information. [(A,B) P. mirabilis SiaT]; (A) compound 3f 0.25 μM (●) or 0.75 μM (□) was added in comparison to samples without inhibitor (○). […]
For uptake experiments, 600 μL of proteoliposomes were loaded onto a Sephadex G-75 column (0.7 cm diameter × 15 cm height), pre-equilibrated with 20 mM Hepes Tris pH 7.0 with 40 mM sucrose to balance the internal osmolarity. […] For kinetic measurement, the initial transport rate was measured by stopping the reaction after 5 min, that is, within the initial linear range of [^3H]-Neu5Ac uptake into the proteoliposomes previously described. […] In both uptake and efflux experiments, the transport assay was terminated by loading each proteoliposome sample (100 μL) on a Sephadex G-75 column (0.6 cm diameter × 8 cm height) to remove the external radioactivity. […]

[2] = experiment 1, vs Neu5Ac, read-out: ΔTm 1
[3] = experiment 2, vs Neu5Ac, read-out: ΔTm 2
[4] = experiment 3, vs Neu5Ac, read-out: ΔTm 3

Row | Molecule | Average 2 (PmSiaT) [°C] | Average 3 (PmSiaT) [°C] | Replicate 1 (PmSiaT) [°C] | Replicate 2 (PmSiaT) [°C] | Replicate 3 (PmSiaT) [°C] | Tm 1 (PmSiaT) [°C] | ΔTm (PmSiaT; [2]) [°C] | Tm2 (PmSiaT) [°C] | ΔTm (PmSiaT; [3]) [°C] | Tm 3 (PmSiaT) [°C] | ΔTm (PmSiaT; [4]) [°C] | Tm average overall (PmSiaT) [°C] | ΔTm at 1250 µM (PmSiaT) [°C] | Average 1 (SaSiaT) [°C] | Average 2 (SaSiaT) [°C] | Average 3 (SaSiaT) [°C] | Replicate 1 (SaSiaT) [°C] | Replicate 2 (SaSiaT) [°C] | Replicate 3 (SaSiaT) [°C] | Tm 1 (SaSiaT) [°C] | also measured
1 | [N-]=[N+]=NCC(=O)N[C@H]1[C@H]([C@H](O)[C@H](O)CO)O[C@@](O)(C(=O)O)C[C@@H]1O [Compound 6h, 5-azidoacetamido-3,5-dideoxy-D-glycero-α-galacto-non-2-ulopyranosonate, reference compound] | 49.0 | 49.1 | 49.2 | 48.8 | 49.3 | 49.2 | -0.1 | 49.2 | 0.1 | 49.0 | 0 | 49.1 | 0 | 52.8 | 52.9 | 52.8 | 52.7 | 53.0 | 52.7 | 52.8 | Average 1 (PmSiaT): 49.2 °C; Tm2 (SaSiaT): 52.7 °C; Tm 3 (SaSiaT): 52.8 °C; Overall average (Tm) (SaSiaT): 52.8 °C
2 | CC(=O)NC1C(OCc2ccc(Br)cc2)CC(O)(C(=O)O)OC1C(O)C(O)CO (stereo not shown) [Compound 3c] | 55.9 | 56.0 | 56.7 | 56.0 | 56.1 | 56.6 | 7.7 | 55.8 | 6.7 | 56.0 | 6.7 | 56.2 | 7 | 54.2 | 53.5 | 54.5 | 54.4 | 53.5 | 54.4 | 54.1 | Average 1 (PmSiaT): 56.7 °C; Tm2 (SaSiaT): 53.5 °C; Tm 3 (SaSiaT): 54.5 °C; Overall average (Tm) (SaSiaT): 54.1 °C
3 | CC(C)C(=O)NC1C(O)CC(O)(C(=O)O)OC1C(O)C(O)CO (stereo not shown) [Compound 6b] | 47.1 | 47.0 | 47.1 | 47.0 | 47.0 | 47.1 | -1.9 | 47.2 | -2.1 | 47.0 | -2.3 | 47.1 | -2.1 | 45.1 | 44.6 | 45.2 | 45.0 | 44.6 | 45.1 | 45.1 | Tm2 (SaSiaT): 44.6 °C; Tm 3 (SaSiaT): 45.3 °C; Overall average (Tm) (SaSiaT): 45.0 °C
4 | B1 |  |  |  |  |  |  |  |  |  |  |  |  |  |  |  |  |  |  |  |  | Km [1]: 12.2 ± 2.2 µM; Vmax [1]: 51 ± 9 nmol/mg protein/min
